The subject of series [1] is Bacillus subtilis. Put plainly: Modified Kirby-Bauer disc diffusion. Format: cell-based. To be noted: Bacillus subtilis (G+). How it is done:
(§1) The antimicrobial activity of compounds 5a-k was assessed using a modified Kirby-Bauer disc diffusion method ([Alkhaldi et al., 2019]; [Al-Wahaibi et al., 2021b]; [Manso et al., 2021]; [Ecevit et al., 2022]). […] Ciprofloxacin was used as a reference medication. […] Compounds 5f-k had promising antibacterial action against Gram-positive and Gram-negative bacteria, ranging from 75% to 115% of typical ciprofloxacin levels. […]
(§2) incubated at 35-37 °C for 24-48 hours and yeast as Candida albicans (ATCC 7102) incubated at 30 °C for 24-48 hours and, then the diameters of the inhibition zones were measured in millimeters. Standard discs of ciprofloxacin (Antibacterial agent), Fluconazole (Antifungal agent) served as positive controls for antimicrobial activity but filter discs impregnated with 10 µl of solvent (distilled water, chloroform, DMSO) were used as a negative control. Blank paper disks (Schleicher & Schuell, Spain) with a diameter of 8.0 mm were impregnated 10µ of tested concentration of the stock solutions. When a filter paper disc impregnated with a tested chemical is placed on agar the chemical will diffuse from the disc into the agar. This diffusion will place the chemical in the agar only around the disc. The solubility of the chemical and its molecular size will determine the size of the area of chemical infiltration around the disc. If an organism is placed on the agar it will not grow in the area around the disc if it is susceptible to the chemical. This area of no growth around the disc is known as a “Zone of inhibition” or" Clear zone". For the disc diffusion, the zone diameters were measured with slipping calipers of the National Committee for Clinical Laboratory […]
(§3) Agar-based methods such as E-test and disk diffusion can be good alternatives because they are simpler and faster than broth-based methods. […]
Background: Agar diffusion results depend on both activity and mobility in agar.

The test system of series [2] is Pseudomonas aeruginosa. Briefly: Modified Kirby-Bauer disc diffusion. Type of series: cell-based. To be noted: Pseudomonas aeruginosa (G−). How it is done:
as §1, §2, §3

The test system of series [3] is Escherichia Coli. Put plainly: Modified Kirby-Bauer disc diffusion. Format: cell-based. To be noted: Escherichia Coli (G−). How it is done: as §1, §2, §3
The subject of series [4] is Bacillus subtilis. Put plainly: MIC, twofold serial dilution, 96-well microtiter plate. To be noted: Bacillus subtilis (G+). Type of series: cell-based. How it is done: (§4) The antibacterial activity of compounds 5f, 5h, 5i, and 5k were evaluated using a twofold serial dilution method ([Parasa et al., 2011]), with ciprofloxacin as the reference compound. The MIC values for certain compounds were obtained through dose-response experiments. The stated values are based on a minimum of two independent experiments, with three replicates per concentration in each experiment. The experimental details can be found in Appendix A (Supplementary Material). […]
(§5) 4.2.2. Minimum inhibitory concentration assay
(§6) In 96-well microtiter plates and […] of fresh bacterial culture of a single McFarland unit overnight, a double serial dilution of each compound […] in sterile standard saline were prepared to every single source well. Ciprofloxacin antibiotic (5 mg / mL - 1) and normal saline were included as standard reference in each assay. The plates were incubated at 37 0C overnight. As an indicator of bacterial growth, […] of p-iodonitrotetrazolium violet (INT) was added to each well and incubated at 37 0C for 30 […]
(§7) min. MIC values are recorded as the lowest concentration of the extract that completely inhibited bacterial growth that is clear well. The colorless tetrazolidium salt acts as an electron accepter and is reduced to a red colored formazan product by biological activity organisms. Where bacterial growth was inhibited, the solution in the well remained clear after incubation with INT. […]
(§8) SybrGOLD in T10 buffer (10 mM Tris HCl with pH 8.0 and 1 mM EDTA) was added. […]

Series [5] relates to Staphylococcus aureus. The description is as above. Format: cell-based. As to conditions: Staphylococcus aureus (G+). How it is done: as §4, §5, §6, §7, §8
Series [6] relates to Pseudomonas aeruginosa. The series is described as above. Format: cell-based. As to conditions: Pseudomonas aeruginosa (G−). How it is done:
as §4, §5, §6, §7, §8

In series [7] the test system is Escherichia Coli. The description is as above. Format: cell-based. To be noted: Escherichia coli (G−). How it is done:
as §4, §5, §6, §7, §8

Series [8] deals with Aspergillus flavus. Briefly: Modified Kirby-Bauer disc diffusion (antifungal). Format: cell-based. As to conditions: Aspergillus flavus (fungi). How it is done: (§9) The antimicrobial activity of compounds 5a-k was assessed using a modified Kirby-Bauer disc diffusion method ([Alkhaldi et al., 2019]; [Al-Wahaibi et al., 2021b]; [Manso et al., 2021]; [Ecevit et al., 2022]). […] Ciprofloxacin was used as a reference medication. […] Compounds 5f-k had promising antibacterial action against Gram-positive and Gram-negative bacteria, ranging from 75% to 115% of typical ciprofloxacin levels.
(§10) In addition, the synthesized compounds 5a-k were evaluated for their antifungal activity against A. flavus and C. albicans, with Fluconazole as a reference medication (Table 1). […]
Standard discs of ciprofloxacin (Antibacterial agent), Fluconazole (Antifungal agent) served as positive controls for antimicrobial activity but filter discs impregnated with 10 µl of solvent (distilled water, chloroform, DMSO) were used as a negative control. Blank paper disks (Schleicher & Schuell, Spain) with a diameter of 8.0 mm were impregnated 10µ of tested concentration of the stock solutions. When a filter paper disc impregnated with a tested chemical is placed on agar the chemical will diffuse from the disc into the agar. This diffusion will place the chemical in the agar only around the disc. The solubility of the chemical and its molecular size will determine the size of the area of chemical infiltration around the disc. If an organism is placed on the agar it will not grow in the area around the disc if it is susceptible to the chemical. This area of no growth around the disc is known as a “Zone of inhibition” or" Clear zone". For the disc diffusion, the zone diameters were measured with slipping calipers of the National Committee for Clinical Laboratory […]
as §3

Series [9] addresses T1, E. coli topoisomerase IV (Escherichia coli, UniProt P20083).
T1 construct: purchased Inspiralis
Briefly: E. coli topoisomerase IV inhibitory assay (Inspiralis kit). To be noted: at 1 µM of the compound. Type of series: biochemical. How it is done:
(§11) NaCl and 50 mM MgCl2) was added to terminate the enzymatic reaction. After
(§12) Initial screening was done at 100 or 10 μM concentration
A single compound was designated with four wells followed by incubation of
After incubation, medium was removed completely from the […]

In series [10] the test system is Candida albicans. Briefly: Modified Kirby-Bauer disc diffusion (antifungal). Format: cell-based. As to conditions: for Inhibition zone diameter: Candida albicans (fungi). How it is done:
as §9, §10, §2, §3

In series [11] the test system is Staph. aureus. Briefly: Modified Kirby-Bauer disc diffusion. Type of series: cell-based, Staphylococcus aureus. To be noted: for Inhibition zone diameter: Staph. aureus (G+). How it is done:
as §1, §2, §3

Series [12] has as its target T2, E. coli DNA gyrase (Escherichia coli, UniProt P0AES6).
T2 construct: purchased Inspiralis
Put plainly: E. coli DNA gyrase supercoiling assay (Inspiralis kit). To be noted: at 1 µM of the compound. Type of series: biochemical. How it is done: The fluorescence was measured with a microplate reader (BioTek Synergy H4,
as §11, §12

Series [13] has as its system J774 macrophages. On the set-up: method as in Souza et al., 2007. To be noted: ref Souza et al., 2007, cited from earlier work.
For series [14], the system named is Mycobacterium tuberculosis H37Rv. More on the design: method as in Souza et al., 2007. As to conditions: ref Souza et al., 2007; cited from earlier work.
The test system of series [15] is Gram-positive and Gram-negative bacteria. Briefly: Disc diffusion, activity relative to ciprofloxacin over the bacterial panel. Format: cell-based. As to conditions: Gram-negative strains. How it is done:
as §1
incubated at 35-37 °C for 24-48 hours and yeast as Candida albicans (ATCC 7102) incubated at 30 °C for 24-48 hours and, then the diameters of the inhibition zones were measured in millimeters. Standard discs of ciprofloxacin (Antibacterial agent), Fluconazole (Antifungal agent) served as positive controls for antimicrobial activity but filter discs impregnated with 10 µl of solvent (distilled water, chloroform, DMSO) were used as a negative control. Blank paper disks (Schleicher & Schuell, Spain) with a diameter of 8.0 mm were impregnated 10µ of tested concentration of the stock solutions. When a filter paper disc impregnated with a tested chemical is placed on agar the chemical will diffuse from the disc into the agar. This diffusion will place the chemical in the agar only around the disc. […] For the disc diffusion, the zone diameters were measured with slipping calipers of the National Committee for Clinical Laboratory […]

The values below come from publication PMC11191877, “Discovery of new Schiff bases of the disalicylic acid scaffold as DNA gyrase and topoisomerase IV inhibitors endowed with antibacterial properties” (Frontiers in Chemistry, 2024).

Values after ≈ are worked out from the molar mass of the structure shown.

T1 sequence (P20083 whole entry): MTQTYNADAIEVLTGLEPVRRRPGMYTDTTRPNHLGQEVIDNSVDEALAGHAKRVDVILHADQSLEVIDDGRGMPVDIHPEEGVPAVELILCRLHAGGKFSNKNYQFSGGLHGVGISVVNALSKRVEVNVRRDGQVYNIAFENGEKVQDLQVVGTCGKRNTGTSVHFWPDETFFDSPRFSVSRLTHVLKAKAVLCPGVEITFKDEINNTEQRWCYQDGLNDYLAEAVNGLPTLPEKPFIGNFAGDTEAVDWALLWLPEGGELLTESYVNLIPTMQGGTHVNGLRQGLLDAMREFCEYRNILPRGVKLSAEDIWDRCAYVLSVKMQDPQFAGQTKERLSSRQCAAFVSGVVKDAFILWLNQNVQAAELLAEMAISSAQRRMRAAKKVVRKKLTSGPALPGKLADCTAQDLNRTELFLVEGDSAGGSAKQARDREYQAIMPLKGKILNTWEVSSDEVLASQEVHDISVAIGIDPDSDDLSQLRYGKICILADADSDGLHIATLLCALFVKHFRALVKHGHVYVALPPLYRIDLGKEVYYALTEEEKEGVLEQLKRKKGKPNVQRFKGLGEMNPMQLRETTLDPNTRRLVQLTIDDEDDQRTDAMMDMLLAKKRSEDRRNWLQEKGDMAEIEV
T1 sequence (P0AFI2 whole entry, further chain): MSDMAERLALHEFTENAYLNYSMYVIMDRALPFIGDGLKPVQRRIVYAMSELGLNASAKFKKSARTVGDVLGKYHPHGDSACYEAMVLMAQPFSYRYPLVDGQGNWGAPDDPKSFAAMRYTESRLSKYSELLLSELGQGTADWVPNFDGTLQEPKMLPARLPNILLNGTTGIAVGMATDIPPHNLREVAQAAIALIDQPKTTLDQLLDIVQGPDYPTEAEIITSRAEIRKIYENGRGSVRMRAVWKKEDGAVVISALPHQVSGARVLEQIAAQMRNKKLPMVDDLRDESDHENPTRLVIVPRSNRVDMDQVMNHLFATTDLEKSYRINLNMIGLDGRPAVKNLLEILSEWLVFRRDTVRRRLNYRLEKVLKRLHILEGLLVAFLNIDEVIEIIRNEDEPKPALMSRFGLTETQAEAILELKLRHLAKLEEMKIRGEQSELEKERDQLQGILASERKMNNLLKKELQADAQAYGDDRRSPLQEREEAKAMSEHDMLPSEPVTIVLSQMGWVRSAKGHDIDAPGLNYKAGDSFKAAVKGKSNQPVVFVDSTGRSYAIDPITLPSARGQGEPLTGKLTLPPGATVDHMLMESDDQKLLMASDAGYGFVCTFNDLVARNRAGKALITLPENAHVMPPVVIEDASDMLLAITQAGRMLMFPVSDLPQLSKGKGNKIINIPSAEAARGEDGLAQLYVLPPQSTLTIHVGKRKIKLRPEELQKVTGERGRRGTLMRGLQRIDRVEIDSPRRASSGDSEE

Turning to “N'-((E)-4-Methylbenzylidene)-4-(4-(2-((Z)-4-methylbenzylidene)hydrazine-1-carbonyl)-3-hydroxybenzyl)-2-hydroxybenzohydrazide [Compound 5f]”, the Inhibition zone diameter in series [1] amounted to 37 mm/mg Sample; in series [2], 33 mm/mg Sample; in series [3], 33 mm/mg Sample; in [8] it was 0.0 mm/mg Sample; in series [10] it was 15 mm/mg Sample; in series [11], 37 mm/mg Sample. Besides, the “Minimum inhibitory concentration (MIC)” value in series [4] is 0.125 µg/mL; in series [5], 0.070 µg/mL; in series [6], 0.125 µg/mL; in series [7], 0.125 µg/mL. For the same compound, the “RA (residual activity of the enzyme) E. Coli Topo IV” value in series [9] is 77%. Besides, the “activity as % of fluconazole” value in series [10] (C. albicans) is on record as 38%. Moreover, the “RA (residual activity of the enzyme) E. Coli DNA gyrase” value in series [12] is recorded as 53%.
Turning to `Oc1ccccc1C=Nc1ccccc1O` [I, N-(salicylidene)-2-hydroxyaniline], the “cytotoxic effects on J774 macrophages” value in series [13] (1,000 μg/mL) was “did not show cytotoxic effects”. Further, the viable macrophage cells result in series [13] (J774 macrophages, 1,000 μg/mL) was “Over 80%”. The MIC in series [14] is 8 µg/mL (≈ 37.5 µM).
Consider “N'-((E)-3-Chlorobenzylidene)-4-(4-(2-((Z)-3-chlorobenzylidene)hydrazine-1-carbonyl)-3-hydroxybenzyl)-2-hydroxybenzohydrazide [Compound 5g]”, for which the Inhibition zone diameter in series [1] is 33 mm/mg Sample; in series [2] it was 30 mm/mg Sample; in [3], 30 mm/mg Sample; in series [8], 0.0 mm/mg Sample; in [10], 0.0 mm/mg Sample; in [11] it was 35 mm/mg Sample. Further, the activity of ciprofloxacin in series [15] is given as 75%. Further, the “activity compared to ciprofloxacin” value in series [11] (S. aureus) was found to be 88%.

Broadly, the MIC is the lowest concentration found to suppress growth.
